# In patent publication US5604203A, “Analogs of peptide YY and uses thereof” (University of Cincinnati, priority 1994, dated 1997):
# Where two headings read alike, the source gives them in different places. Square brackets hold non-standard residues; d marks the D form. Ends that are not written are not given here. Peptide text beside a SMILES is read from it. Bip = N[C@@H](Cc1ccc(-c2ccccc2)cc1)C(=O)O; 2Nal = N[C@@H](Cc1ccc2ccccc2c1)C(=O)O; Tic = O=C(O)[C@@H]1Cc2ccccc2CN1; 2Thi = N[C@@H](Cc1cccs1)C(=O)O
# T1: intestinal PYY-preferring receptors (Rattus norvegicus, UniProt Q9ERC0)
# T1 sequence (Q9ERC0 1-381): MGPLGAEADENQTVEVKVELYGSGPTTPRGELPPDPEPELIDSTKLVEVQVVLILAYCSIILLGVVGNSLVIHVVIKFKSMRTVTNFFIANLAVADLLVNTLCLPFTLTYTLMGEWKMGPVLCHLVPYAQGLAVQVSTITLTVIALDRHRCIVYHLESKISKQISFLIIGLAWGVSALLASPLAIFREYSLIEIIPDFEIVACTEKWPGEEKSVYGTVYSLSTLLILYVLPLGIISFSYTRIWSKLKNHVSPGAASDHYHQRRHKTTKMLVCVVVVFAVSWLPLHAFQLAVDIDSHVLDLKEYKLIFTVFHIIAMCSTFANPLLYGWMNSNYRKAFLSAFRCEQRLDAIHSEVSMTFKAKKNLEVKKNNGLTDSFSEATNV
# B1: N-α-Ac-[Bth^27 ]PYY(22-36) (peptide)
# peptide: ASLRHXLNLVTRQRY
# HELM: PEPTIDE1{[ac].A.S.L.R.H.[O=C([C@H](Cc1csc2ccccc12)N[*:1])[*:2]].L.N.L.V.T.R.Q.R.Y.[am]}$$$$V2.0
# SMILES: CC(=O)N[C@@H](C)C(=O)N[C@@H](CO)C(=O)N[C@@H](CC(C)C)C(=O)N[C@@H](CCCNC(=N)N)C(=O)N[C@@H](Cc1c[nH]cn1)C(=O)N[C@@H](Cc1csc2ccccc12)C(=O)N[C@@H](CC(C)C)C(=O)N[C@@H](CC(N)=O)C(=O)N[C@@H](CC(C)C)C(=O)N[C@H](C(=O)N[C@H](C(=O)N[C@@H](CCCNC(=N)N)C(=O)N[C@@H](CCC(N)=O)C(=O)N[C@@H](CCCNC(=N)N)C(=O)N[C@@H](Cc1ccc(O)cc1)C(N)=O)[C@@H](C)O)C(C)C
# B2: N-α-Ac-[Phe^27,Thi^36 ]PYY(22-36) (peptide)
# peptide: ASLRHFLNLVTRQRX
# HELM: PEPTIDE1{[ac].A.S.L.R.H.F.L.N.L.V.T.R.Q.R.[O=C([C@H](Cc1cccs1)N[*:1])[*:2]].[am]}$$$$V2.0
# SMILES: CC(=O)N[C@@H](C)C(=O)N[C@@H](CO)C(=O)N[C@@H](CC(C)C)C(=O)N[C@@H](CCCNC(=N)N)C(=O)N[C@@H](Cc1c[nH]cn1)C(=O)N[C@@H](Cc1ccccc1)C(=O)N[C@@H](CC(C)C)C(=O)N[C@@H](CC(N)=O)C(=O)N[C@@H](CC(C)C)C(=O)N[C@H](C(=O)N[C@H](C(=O)N[C@@H](CCCNC(=N)N)C(=O)N[C@@H](CCC(N)=O)C(=O)N[C@@H](CCCNC(=N)N)C(=O)N[C@@H](Cc1cccs1)C(N)=O)[C@@H](C)O)C(C)C
# Assays:
# [1] = biological target: T1, intestinal PYY-preferring receptors
# Method: Bound and free peptides were separated by centrifugation at 20,000×g for 10 min.
# All points in the binding experiments are the mean of at least three experiments performed in duplicate.
# [2] = biological target: PYY receptor of rat jejunal epithelial plasma membranes (rat); assay: competition with 125I-PYY on rat jejunal membranes
# [3] = biological target: PYY receptor of rat jejunal epithelial plasma membranes (rat); assay: competition with 0.05 nM 125I-PYY on rat jejunal epithelial plasma membranes
# [4] = biological target: PYY receptor of rat jejunal epithelial plasma membranes (rat); assay: competitive binding, done as described above (125I-PYY, rat jejunal membranes)
# [5] = BINDING IC50 (nM), Table 1, 125I-PYY, rat jejunal membranes, mean of three separate experiments
# [6] = IC50 (nM), Table 2, receptor binding data
# [7] = IC50 (nM), Table 3, binding activity
molecule,measurement,setting,value
"CC(=O)N[C@@H](C)C(=O)N[C@@H](CO)C(=O)N[C@@H](CC(C)C)C(=O)N[C@@H](CCCNC(=N)N)C(=O)N[C@@H](Cc1cnc[nH]1)C(=O)N[C@@H](Cc1ccc(O)cc1)C(=O)N[C@@H](CC(C)C)C(=O)N[C@@H](CC(N)=O)C(=O)N[C@@H](CC(C)C)C(=O)N[C@H](C(=O)N[C@H](C(=O)N[C@@H](CCCNC(=N)N)C(=O)N[C@@H](CCC(N)=O)C(=O)N[C@@H](CCCNC(=N)N)C(=O)N[C@@H](Cc1ccc(O)cc1)C(N)=O)[C@@H](C)O)C(C)C [N-α-Ac-PYY(22-36), N-α-Ac-A S L R H Y L N L V T R Q R Y--NH2]",IC50,[1]; [5],1.12 nM
same,IC50,[1]; [6],0.08 nM
"CC(=O)N[C@@H](C)C(=O)N[C@@H](CO)C(=O)N[C@@H](CC(C)C)C(=O)N[C@@H](CCCNC(=N)N)C(=O)N[C@@H](Cc1c[nH]cn1)C(=O)N[C@@H](Cc1ccc(Cl)cc1)C(=O)N[C@@H](CC(C)C)C(=O)N[C@@H](CC(N)=O)C(=O)N[C@@H](CC(C)C)C(=O)N[C@H](C(=O)N[C@H](C(=O)N[C@@H](CCCNC(=N)N)C(=O)N[C@@H](CCC(N)=O)C(=O)N[C@@H](CCCNC(=N)N)C(=O)N[C@@H](Cc1ccc(O)cc1)C(N)=O)[C@@H](C)O)C(C)C [Peptide 904, N-α-Ac-A S L R H [Pcp] L N L V T R Q R Y--NH2] (HELM PEPTIDE1{[ac].A.S.L.R.H.[O=C([C@H](Cc1ccc(Cl)cc1)N[*:1])[*:2]].L.N.L.V.T.R.Q.R.Y.[am]}$$$$V2.0)",IC50,[1]; [7],1.58 nM
"CC(=O)N[C@@H](C)C(=O)N[C@@H](CO)C(=O)N[C@@H](CC(C)C)C(=O)N[C@@H](CCCNC(=N)N)C(=O)N[C@@H](Cc1c[nH]cn1)C(=O)N[C@@H](Cc1csc2ccccc12)C(=O)N[C@@H](CC(C)C)C(=O)N[C@@H](CC(N)=O)C(=O)N[C@@H](CC(C)C)C(=O)N[C@H](C(=O)N[C@H](C(=O)N[C@@H](CCCNC(=N)N)C(=O)N[C@@H](CCC(N)=O)C(=O)N[C@@H](CCCNC(=N)N)C(=O)N[C@@H](Cc1ccc(O)cc1)C(N)=O)[C@@H](C)O)C(C)C [Peptide 905, N-α-Ac-A S L R H [Bth] L N L V T R Q R Y--NH2] (HELM PEPTIDE1{[ac].A.S.L.R.H.[O=C([C@H](Cc1csc2ccccc12)N[*:1])[*:2]].L.N.L.V.T.R.Q.R.Y.[am]}$$$$V2.0)",IC50,[1]; [6],0.22 nM
"CC(=O)N[C@@H](C)C(=O)N[C@@H](CO)C(=O)N[C@@H](CC(C)C)C(=O)N[C@@H](CCCN=C(N)N)C(=O)N[C@@H](Cc1c[nH]cn1)C(=O)N[C@@H](Cc1ccc(-c2ccccc2)cc1)C(=O)N[C@@H](CC(C)C)C(=O)N[C@@H](CC(N)=O)C(=O)N[C@@H](CC(C)C)C(=O)N[C@H](C(=O)N[C@H](C(=O)N[C@@H](CCCN=C(N)N)C(=O)N[C@@H](CCC(N)=O)C(=O)N[C@@H](CCCN=C(N)N)C(=O)N[C@@H](Cc1ccc(O)cc1)C(N)=O)[C@@H](C)O)C(C)C [Peptide 906, N-α-Ac-A S L R H [Bip] L N L V T R Q R Y--NH2] (HELM PEPTIDE1{[ac].A.S.L.R.H.[O=C([C@H](Cc1ccc(-c2ccccc2)cc1)N[*:1])[*:2]].L.N.L.V.T.R.Q.R.Y.[am]}$$$$V2.0)",IC50,[1]; [6],4.46 nM
"CC(=O)N[C@@H](C)C(=O)N[C@@H](CO)C(=O)N[C@@H](CC(C)C)C(=O)N[C@@H](CCCNC(=N)N)C(=O)N[C@@H](Cc1c[nH]cn1)C(=O)N[C@@H](Cc1ccc2ccccc2c1)C(=O)N[C@@H](CC(C)C)C(=O)N[C@@H](CC(N)=O)C(=O)N[C@@H](CC(C)C)C(=O)N[C@H](C(=O)N[C@H](C(=O)N[C@@H](CCCNC(=N)N)C(=O)N[C@@H](CCC(N)=O)C(=O)N[C@@H](CCCNC(=N)N)C(=O)N[C@@H](Cc1ccc(O)cc1)C(N)=O)[C@@H](C)O)C(C)C [Peptide 911, N-α-Ac-A S L R H [NaL] L N L V T R Q R Y--NH2] (HELM PEPTIDE1{[ac].A.S.L.R.H.[O=C([C@H](Cc1ccc2ccccc2c1)N[*:1])[*:2]].L.N.L.V.T.R.Q.R.Y.[am]}$$$$V2.0)",IC50,[1],0.39 nM
CC(=O)N[C@@H](C)C(=O)N[C@@H](CO)C(=O)N[C@@H](CC(C)C)C(=O)N[C@@H](CCCNC(=N)N)C(=O)N[C@@H](Cc1c[nH]cn1)C(=O)N[C@@H](Cc1cccs1)C(=O)N[C@@H](CC(C)C)C(=O)N[C@@H](CC(N)=O)C(=O)N[C@@H](CC(C)C)C(=O)N[C@H](C(=O)N[C@H](C(=O)N[C@@H](CCCNC(=N)N)C(=O)N[C@@H](CCC(N)=O)C(=O)N[C@@H](CCCNC(=N)N)C(=O)N[C@@H](Cc1ccc(O)cc1)C(N)=O)[C@@H](C)O)C(C)C [Peptide 916] (HELM PEPTIDE1{[ac].A.S.L.R.H.[O=C([C@H](Cc1cccs1)N[*:1])[*:2]].L.N.L.V.T.R.Q.R.Y.[am]}$$$$V2.0),IC50,[1]; [6],0.095 nM
"CC(=O)N[C@@H](C)C(=O)N[C@@H](CO)C(=O)N[C@@H](CC(C)C)C(=O)N[C@@H](CCCNC(=N)N)C(=O)N[C@@H](Cc1cnc[nH]1)C(=O)N[C@@H](Cc1ccccc1)C(=O)N[C@@H](CC(C)C)C(=O)N[C@@H](CC(N)=O)C(=O)N[C@@H](CC(C)C)C(=O)N[C@H](C(=O)N[C@H](C(=O)N[C@@H](CCCNC(=N)N)C(=O)N[C@@H](CCC(N)=O)C(=O)N[C@@H](CCCNC(=N)N)C(=O)N[C@@H](Cc1cccs1)C(N)=O)[C@@H](C)O)C(C)C [Peptide 917, M-α-Ac-A S L R H (Phel L N L V T R Q R [Thi]-NH2] (HELM PEPTIDE1{[ac].A.S.L.R.H.F.L.N.L.V.T.R.Q.R.[O=C([C@H](Cc1cccs1)N[*:1])[*:2]].[am]}$$$$V2.0)",IC50,[1]; [7],4.46 nM
"AALRHYLNLVARQRY-NH2 [[Ala^23,32]PYY(22-36), A [Ala] L R H Y L N L V [Ala] R Q R Y-NN2]",IC50,[1]; [5],> 10000 nM
"ASLRHYENLVTRQRY-NH2 [[Glu^28]PYY(22-36), A S L R H Y [Glu] N L V T R Q R Y--NH2]",IC50,[1]; [5],199 nM
"ASLRHYLNLVARQRY-NH2 [[Ala^32]PYY(22-36), A S L R H Y L N L V [Ala] R Q R Y--NH2]",IC50,[1]; [5],71 nM
Ac-ASLRHFLNLVTRQRY-NH2 [N-α-Ac-[Phe^27]PYY(22-36)],IC50,[1]; [5],0.8 nM
"Ac-ASLRHWLNLVTRQRY-NH2 [Peptide 915, N-α-Ac-A S L R H [Trp] L N L V T R Q R Y--NH2]",IC50,[1]; [6],0.1 nM
"Ac-FSLRHFLNLVTRQRY-NH2 [Peptide 908, N-α-Ac-[Phe]S L R N [Phe] L N L V T R Q R Y--NH2]",IC50,[1]; [7],11.2 nM
"Ac-YSLRHFLNLVTRQRY-NH2 [Peptide 910, N-α-Ac-[Tyr] S L R H [Phe] L N L V T R Q R Y--NH2]",IC50,[1]; [7],0.1 nM
N-α-Ac-[Phe^27 ]PYY(25-36) (peptide),IC50,[2],0.15 nM
NPY (neuropeptide Y) (ligand),IC50,[3],2 nM
PYY(22-36) (peptide),IC50,[3],4 nM
[im-DNP-His^26 ]PYY (peptide),IC50,[3],4 nM
ASLRHYLNLVARQRY-NH2 [[Ala^32 ]PYY(22-36)],IC50,[3],71 nM
B1,IC50,[2],0.22 nM
ASLRHYENLVTRQRY-NH2 [[Glu^28 ]PYY(22-36)],IC50,[3],199 nM
Ac-ASLRH[2Nal]LNLVTRQRY-NH2 [N-α-Ac-[Nal^27 ]PYY(22-36)],IC50,[2],0.39 nM
Ac-ASLRHWLNLVTRQRY-NH2 [N-α-Ac-[Trp^27 ]PYY(22-36)],IC50,[2],0.1 nM
B2,IC50,[4],4.46 nM
"AALRHYLNLVARQRY-NH2 [[Ala^23,32 ]PYY(22-36)]",IC50,[3],> 10000 nM
Ac-ASLRH[Bip]LNLVTRQRY-NH2 [N-α-Ac-[Bip^27 ]PYY(22-36)],IC50,[2],4.46 nM
Ac-ASLRH[2Thi]LNLVTRQRY-NH2 [N-α-Ac-[Thi^27 ]PYY(22-36)],IC50,[2],0.095 nM
Ac-ASLRH[Tic]LNLVTRQRY-NH2 [N-α-Ac-[Tic^27 ]PYY(22-36)],IC50,[2],4.5 nM
